Measured values as given in patent publication US10441593B2, “Treatment of pain associated with dislocation of endometrium” (PREGLEM S.A., priority 2010, dated 2019).
Where “and” joins values, the source holds several entries; their conditions need not be identical. Equal entries are not always repeated.

System: patients with heavy menstrual bleeding and pain who had adenomyosis
Experiment: Clinical study: 13 weeks oral 5 mg or 10 mg ulipristal in patients with adenomyosis (Example 1)
Type: in vivo, human
Experimental: A double-blinded, randomized, placebo-controlled study evaluating the effect of long term (13 weeks) oral administration of 5 mg or 10 mg ulipristal in patients with heavy menstrual bleeding and pain included 5 patients who had adenomyosis.
These patients included women 36 years of age or older diagnosed by MRI with adenomyosis but no evidence of uterine fibroid.
The patients were randomized as follows: 1 patient received a daily placebo treatment (matching Esmya tablet appearance) and iron 80 mg/day, 2 patients received a daily dose of 5 mg ulipristal (Esmya®) and iron 80 mg/day and 2 patients received a daily dose of 10 mg ulipristal (Esmya®) and iron 80 mg/day for 13 weeks.
Different parameters were assessed before treatment (Baseline) and after the end of treatment (13 weeks): • The PBAC score (Pictorial Blood Loss Assessment Chart) gives an estimation of the menstrual blood loss. This score was measured before treatment and continuing up to week 13 of treatment. Normal menstrual bleeding score is <75. Abnormal bleeding (menorrhagia) is characterized by a PBAC score >100. Higher the score, worse is the bleeding. • The Uterine volume was estimated before treatment (Baseline Uterine volume) and the % change in uterine volume was reported at the end of the treatment (week 13). • The SF-M P QPart A (short form of the Mc Gill Pain questionnaire) was used as a measure of the sensory, affective and intensity dimensions of pain. The pain was estimated before treatment and the change was reported at the end of the treatment (week 13). (NOTE: The lowest is the score, the better it is). • The SF-MPQ Part B (short form of the Mc Gill Pain questionnaire) wherein the pain is assessed with a visual analogue scale (VAS) before treatment and the change was reported at the end of the treatment (week 13). (NOTE: The lowest is the score, the better it is). • Discomfort questionnaire (disease specific quality of life questionnaire) estimating the quality of life before treatment and the change was reported at the end of the treatment (week 13). (NOTE: The lowest is the score, the better it is). • The level of Hb (Hemoglobin) was measured before treatment and at the end of the treatment. (NOTE: the higher it is, the better it is.) 3. Results

[1] = 5 mg/day + iron 80 mg/day, 13 weeks, patient 130/1368, adenomyosis
[2] = 5 mg/day + iron 80 mg/day, 13 weeks, patient 142/1036, adenomyosis
[3] = 10 mg/day + iron 80 mg/day, 13 weeks, patient 148/1427, adenomyosis
[4] = 10 mg/day + iron 80 mg/day, 13 weeks, patient 154/1240, adenomyosis
[5] = daily dose of 5 mg or 10 mg, examples 1 and 2

**Q.** For `CC(=O)O[C@]1(C(C)=O)CC[C@H]2[C@@H]3CCC4=CC(=O)CCC4=C3[C@@H](c3ccc(N(C)C)cc3)C[C@@]21C` [Ulipristal, 17α-acetoxy-11β-[4-N,N-dimethylamino-phenyl)-19-norpregna-4,9-diene-3,20-dione], which “% change in uterine volume at week 13” value [1] is on record?
**A.** −21.5%

**Q.** And the “Change in PBAC” value [1]?
**A.** −232

**Q.** And the “Discomfort questionnaire Change at Week 13” value [1]?
**A.** −5

**Q.** And the “Hb at Week 13” value [1]?
**A.** 13.5 g/dL

**Q.** And the “PBAC at week 13” value [1]?
**A.** 0

**Q.** And the “SF-MPQ Part A Change at Week 13” value [1]?
**A.** −5

**Q.** What about the “SF-MPQ Part B (VAS) Change at Week 13” value [1] of the same molecule?
**A.** −7

**Q.** What about the “% change in uterine volume at week 13” value [2] of the same molecule?
**A.** +0.4%

**Q.** What about the “Change in PBAC” value [2] of the same molecule?
**A.** −994

**Q.** And the “Discomfort questionnaire Change at Week 13” value [2]?
**A.** −9

**Q.** And the “Hb at Week 13” value [2]?
**A.** 14 g/dL

**Q.** What about the “PBAC at week 13” value [2] of the same molecule?
**A.** 0

**Q.** What about the “SF-MPQ Part A Change at Week 13” value [2] of the same molecule?
**A.** 0

**Q.** And the “SF-MPQ Part B (VAS) Change at Week 13” value [2]?
**A.** −6

**Q.** What about the “pain at 10 mg, both patients” value (10 mg, both patients, adenomyosis) of the same molecule?
**A.** Very substantial improvement in pain

**Q.** What about the “pain at 10 mg, one of the patients” value (10 mg, one of the two patients, adenomyosis) of the same molecule?
**A.** complete absence of pain

**Q.** What about the “% change in uterine volume at week 13” value [3] of the same molecule?
**A.** 36.4%

**Q.** What about the “Change in PBAC” value [3] of the same molecule?
**A.** −624

**Q.** What about the “Discomfort questionnaire Change at Week 13” value [3] of the same molecule?
**A.** −20

**Q.** What about the “Hb at Week 13” value [3] of the same molecule?
**A.** 13.6 g/dL

**Q.** What about the “PBAC at week 13” value [3] of the same molecule?
**A.** 0

**Q.** What about the “SF-MPQ Part A Change at Week 13” value [3] of the same molecule?
**A.** −2

**Q.** What about the “SF-MPQ Part B (VAS) Change at Week 13” value [3] of the same molecule?
**A.** −43

**Q.** What about the “% change in uterine volume at week 13” value [4] of the same molecule?
**A.** −32.0%

**Q.** And the “Change in PBAC” value [4]?
**A.** −536

**Q.** What about the “Discomfort questionnaire Change at Week 13” value [4] of the same molecule?
**A.** −12

**Q.** And the “Hb at Week 13” value [4]?
**A.** 12.1 g/dL

**Q.** What about the “PBAC at week 13” value [4] of the same molecule?
**A.** 0

**Q.** What about the “SF-MPQ Part A Change at Week 13” value [4] of the same molecule?
**A.** −14

**Q.** What about the “SF-MPQ Part B (VAS) Change at Week 13” value [4] of the same molecule?
**A.** −93

**Q.** And the “PBAC score at the end of treatment (week 13)” value (all 4 patients treated with 5 mg or 10 mg, adenomyosis)?
**A.** 0

**Q.** What about the “pain as measured with the SF-MPQ Part B (VAS) compared to the placebo treated patient” value (all four patients, 5 mg or 10 mg, 13 weeks, adenomyosis) of the same molecule?
**A.** improvements in pain

**Q.** What about the “quality of life compared to the placebo treated patient” value (all four patients, 5 mg or 10 mg, adenomyosis) of the same molecule?
**A.** substantial improvement in the quality of life

**Q.** What about the “Hb at the end of the treatment” value (all four patients, 5 mg or 10 mg, concomitant iron 80 mg once daily) of the same molecule?
**A.** increase in Hb

**Q.** What about the “PBAC score at the end of the treatment” value [5] of the same molecule?
**A.** amenorrhea

**Q.** What about the “uterine volume at the end of treatment” value [5] of the same molecule?
**A.** decrease in uterine volume

**Q.** And the “levels of Hb during the treatment” value (daily dose of 5 mg or 10 mg, with or without concomitant iron)?
**A.** increased

**Q.** What about the “% change in uterine volume at week 13” value (individual ulipristal treated patients (5 mg or 10 mg), adenomyosis) of the same molecule?
**A.** +36.4% and +0.4% and −21.5% and −32%

**Q.** And the “pain relief, 10 mg compared to 5 mg” value (patients treated at 10 mg vs patients that received 5 mg, adenomyosis)?
**A.** better pain relief
